Calls of active or inactive are those of the source. The calls are words filed in the database; no cut-off is given here.
Assays:
[1] = system: HepG2; experiment: Hypolipidemic activity in human HepG2 cells assessed as reduction in FFA-induced intracellular fat deposition at 10 uM after 24 hrs by Oil Red O staining based assay; format: functional, cell-based
[2] = Toxicity in high fat diet-induced ICR mouse model of hyperlipidemia assessed as change in spleen weight at 25 mg/kg, ig administered once daily for 8 weeks by H and E staining based microscopic analysis; format: organism-based; conditions: in vivo, po, 1344 h
[3] = Toxicity in high fat diet-induced mouse model of hyperlipidemia assessed as change in food intake at 25 mg/kg, ig administered once daily for 8 weeks; format: organism-based; conditions: in vivo, po, 1344 h
[4] = system: HepG2; experiment: Hypolipidemic activity in human HepG2 cells assessed as reduction in FFA-induced intracellular fat deposition at 50 to 100 uM after 24 hrs by Oil Red O staining based assay; format: functional; set-up: scale not given: the % may be the effect or the level left; conditions: dose 50-100 µM
[5] = system: Mus musculus; experiment: Effect on ABCA1 protein expression level in high-fat diet fed mouse liver at 25 mg/kg/day by Western blotting analysis; format: functional, organism-based
[6] = system: Mus musculus; experiment: Effect on ABCA1 protein expression level in high-fat diet fed mouse small intestine at 25 mg/kg, po by Western blotting analysis; format: functional, organism-based
[7] = system: Mus musculus; experiment: Effect on ABCA1 mRNA expression level in high-fat diet fed mouse small intestine at 25 mg/kg, po by qRT-PCR analysis; format: functional, organism-based
[8] = system: Mus musculus; experiment: Effect on ABCG1 mRNA expression level in high-fat diet fed mouse liver at 25 mg/kg/day by qRT-PCR analysis; format: functional, organism-based
[9] = system: Mus musculus; experiment: Effect on NPC1L1 protein expression level in high-fat diet fed mouse small intestine at 25 mg/kg, po by Western blotting analysis; format: functional, organism-based
[10] = Toxicity in high fat diet-induced ICR mouse model of hyperlipidemia assessed as change in hepatic morphology at 25 mg/kg, ig administered once daily for 8 weeks by H and E staining based microscopic analysis; format: organism-based; conditions: in vivo, po, 1344 h
[11] = Upregulation of […] expression in high-fat diet fed mouse small intestine assessed as fold increase at 25 mg/kg, po by qRT-PCR analysis; format: functional
[12] = system: Mus musculus; experiment: Effect on ABCA1 mRNA expression level in high-fat diet fed mouse liver at 25 mg/kg/day by qRT-PCR analysis; format: functional, organism-based
[13] = Toxicity in high fat diet-induced ICR mouse model of hyperlipidemia assessed as change in lung weight at 25 mg/kg, ig administered once daily for 8 weeks by H and E staining based microscopic analysis; format: organism-based; conditions: in vivo, po, 1344 h
[14] = system: Mus musculus; experiment: Hypolipidemic activity in normal diet fed ICR mouse assessed as alteration in plasma LDL-C level at 25 mg/kg, ig administered once daily for 8 weeks; format: functional, organism-based
[15] = Upregulation of ABCG8 protein expression in high-fat diet fed mouse small intestine at 25 mg/kg, po by Western blotting analysis; format: functional
[16] = system: Mus musculus; experiment: Effect on ABCG1 protein expression level in high-fat diet fed mouse liver at 25 mg/kg/day by Western blotting analysis; format: functional, organism-based
[17] = system: HepG2; experiment: Hypolipidemic activity in human HepG2 cells assessed as reduction in FFA-induced lipid accumulation incubated for 24 hrs by Oil Red O staining based assay; format: functional, cell-based; conditions: dose 10-100 µM
[18] = system: Mus musculus; experiment: Hypolipidemic activity in high fat diet-induced ICR mouse hyperlipidemic model assessed as reduction in fat accumulation in liver at 25 mg/kg, ig administered once daily for 8 weeks by H and E staining based microscopic analysis; format: functional, organism-based
[19] = system: Mus musculus; experiment: Effect on ABCG5 mRNA expression level in high-fat diet fed mouse liver at 25 mg/kg/day by qRT-PCR analysis; format: functional, organism-based
[20] = system: Mus musculus; experiment: Hypolipidemic activity in normal diet fed ICR mouse assessed as alteration in plasma TC level at 25 mg/kg, ig administered once daily for 8 weeks; format: functional, organism-based
[21] = system: Mus musculus; experiment: Hypolipidemic activity in high fat diet-induced ICR mouse hyperlipidemic model assessed as reduction in TG level in liver at 25 mg/kg, ig administered once daily for 8 weeks by H and E staining based microscopic analysis; format: functional, organism-based
[22] = system: Mus musculus; experiment: Effect on SR-B1 protein expression level in high-fat diet fed mouse small intestine at 25 mg/kg, po by Western blotting analysis; format: functional, organism-based
[23] = system: Mus musculus; experiment: Hypolipidemic activity in high fat diet-induced ICR mouse hyperlipidemic model assessed as reduction in plasma LDL-C level at 25 mg/kg, ig administered once daily for 8 weeks; format: functional; set-up: scale not given: the % may be the effect or the level left
[24] = Toxicity in high fat diet-induced ICR mouse model of hyperlipidemia assessed as change in heart weight at 25 mg/kg, ig administered once daily for 8 weeks by H and E staining based microscopic analysis; format: organism-based; conditions: in vivo, po, 1344 h
[25] = system: Mus musculus; experiment: Effect on NPC1 mRNA expression level in high-fat diet fed mouse liver at 25 mg/kg/day by qRT-PCR analysis; format: functional, organism-based
[26] = system: Mus musculus; experiment: Effect on NPC1 mRNA expression level in high-fat diet fed mouse small intestine at 25 mg/kg, po by qRT-PCR analysis; format: functional, organism-based
[27] = Toxicity in high fat diet-induced mouse model of hyperlipidemia assessed as change in body weight at 25 mg/kg, ig administered once daily for 8 weeks; format: organism-based; conditions: in vivo, po, 1344 h
[28] = Toxicity in high fat diet-induced ICR mouse model of hyperlipidemia assessed as change in stomach weight at 25 mg/kg, ig administered once daily for 8 weeks by H and E staining based microscopic analysis; format: organism-based; conditions: in vivo, po, 1344 h
[29] = system: Mus musculus; experiment: Effect on ABCG5 protein expression level in high-fat diet fed mouse liver at 25 mg/kg/day by Western blotting analysis; format: functional, organism-based
[30] = system: Mus musculus; experiment: Hypolipidemic activity in high fat diet-induced ICR mouse hyperlipidemic model assessed as reduction in plasma TC level at 25 mg/kg, ig administered once daily for 8 weeks; format: functional; set-up: scale not given: the % may be the effect or the level left
[31] = Toxicity in high fat diet-induced ICR mouse model of hyperlipidemia assessed as change in kidney weight at 25 mg/kg, ig administered once daily for 8 weeks by H and E staining based microscopic analysis; format: organism-based; conditions: in vivo, po, 1344 h
[32] = system: HepG2; experiment: Cytotoxicity against human HepG2 cells assessed as reduction in cell viability at 1 to 100 uM after 24 hrs by CCK8 assay; format: cell-based; conditions: hepg2, 24 h, dose 1-100 µM
[33] = system: Mus musculus; experiment: Hypolipidemic activity in high fat diet-induced ICR mouse hyperlipidemic model assessed as increase in plasma HDL-C level at 25 mg/kg, ig administered once daily for 8 weeks; format: functional, organism-based
[34] = system: Mus musculus; experiment: Hypolipidemic activity in normal diet fed ICR mouse assessed as reduction in TC level in liver at 25 mg/kg, ig administered once daily for 8 weeks by H and E staining based microscopic analysis; format: functional, organism-based
[35] = system: Mus musculus; experiment: Upregulation of SR-B1 protein expression level in high-fat diet fed mouse liver at 25 mg/kg/day by Western blotting analysis; format: functional, organism-based
[36] = system: Mus musculus; experiment: Effect on NPC1L1 protein expression level in high-fat diet fed mouse liver at 25 mg/kg/day by Western blotting analysis; format: functional, organism-based
[37] = system: Mus musculus; experiment: Hypolipidemic activity in normal diet fed ICR mouse assessed as reduction in TG level in liver at 25 mg/kg, ig administered once daily for 8 weeks by H and E staining based microscopic analysis; format: functional, organism-based
[38] = system: HepG2; experiment: Hypolipidemic activity in human HepG2 cells assessed as reduction in FFA-induced TG accumulation after 24 hrs; format: functional, cell-based; conditions: dose 10-100 µM
[39] = system: Mus musculus; experiment: Effect on SR-B1 mRNA expression level in high-fat diet fed mouse small intestine at 25 mg/kg, po by qRT-PCR analysis; format: functional, organism-based
[40] = system: Mus musculus; experiment: Hypolipidemic activity in normal diet fed ICR mouse assessed as alteration in plasma TG level at 25 mg/kg, ig administered once daily for 8 weeks; format: functional, organism-based
[41] = Toxicity in high fat diet-induced ICR mouse model of hyperlipidemia assessed as change in liver weight at 25 mg/kg, ig administered once daily for 8 weeks by H and E staining based microscopic analysis; format: organism-based; conditions: in vivo, po, 1344 h
[42] = system: Mus musculus; experiment: Effect on ABCG8 protein expression level in high-fat diet fed mouse liver at 25 mg/kg/day by Western blotting analysis; format: functional, organism-based
[43] = system: Mus musculus; experiment: Upregulation of ABCG8 mRNA expression in high-fat diet fed mouse liver at 25 mg/kg/day by qRT-PCR analysis; format: functional, organism-based
[44] = system: Mus musculus; experiment: Hypolipidemic activity in normal diet fed ICR mouse assessed as alteration in plasma HDL-C level at 25 mg/kg, ig administered once daily for 8 weeks; format: functional, organism-based
[45] = system: Mus musculus; experiment: Hypolipidemic activity in high fat diet-induced ICR mouse hyperlipidemic model assessed as reduction in plasma TG level at 25 mg/kg, ig administered once daily for 8 weeks; format: functional; set-up: scale not given: the % may be the effect or the level left
[46] = system: Mus musculus; experiment: Hypolipidemic activity in high fat diet-induced ICR mouse hyperlipidemic model assessed as reduction in TC level in liver at 25 mg/kg, ig administered once daily for 8 weeks by H and E staining based microscopic analysis; format: functional, organism-based
[47] = system: Mus musculus; experiment: Effect on ABCG5 mRNA expression level in high-fat diet fed mouse small intestine at 25 mg/kg, po by qRT-PCR analysis; format: functional, organism-based
[48] = system: Mus musculus; experiment: Effect on ABCG5 protein expression level in high-fat diet fed mouse small intestine at 25 mg/kg, po by Western blotting analysis; format: functional, organism-based
[49] = system: Mus musculus; experiment: Effect on SR-B1 mRNA expression level in high-fat diet fed mouse liver at 25 mg/kg/day by qRT-PCR analysis; format: functional, organism-based

## CC(C)c1c(C(=O)Nc2ccccc2)c(-c2ccccc2)c(-c2ccc(F)cc2)n1CC[C@@H](O)C[C@@H](O)CC(=O)O
[1]
  Activity: Active

## O=C(/C=C/C=C/c1ccc2c(c1)OCO2)N1CCCCC1 [PIPERINE]
[2]
  Activity: Non-Toxic
[3]
  Activity: Non-Toxic
[4]
  Activity: 36%
[5]
  Activity: inactive
[6]
  Activity: inactive
[7]
  Activity: inactive
[8]
  Activity: inactive
[9]
  Activity: inactive
[10]
  Activity: Non-Toxic
[11]
  fold change (FC): 1.8
[12]
  Activity: inactive
[13]
  Activity: Non-Toxic
[14]
  Activity: inactive
[15]
  Activity: 80%
[16]
  Activity: inactive
[17]
  Activity: Dose-Dependent Effect
[18]
  Activity: Active
[19]
  Activity: inactive
[20]
  Activity: inactive
[21]
  Activity: Active
[22]
  Activity: inactive
[23]
  Activity: 34.4%
[24]
  Activity: Non-Toxic
[25]
  Activity: inactive
[26]
  Activity: inactive
[27]
  Activity: Non-Toxic
[28]
  Activity: Non-Toxic
[29]
  Activity: inactive
[30]
  Activity: 27.5%
[31]
  Activity: Non-Toxic
[32]
  Activity: Non-Toxic
[33]
  Activity: Active
[34]
  Activity: inactive
[35]
  Activity: Active
[36]
  Activity: inactive
[37]
  Activity: inactive
[38]
  Activity: Dose-Dependent Effect
[39]
  Activity: inactive
[40]
  Activity: inactive
[41]
  Activity: Non-Toxic
[42]
  Activity: inactive
[43]
  Activity: Active
[44]
  Activity: inactive
[45]
  Activity: 43.6%
[46]
  Activity: Active
[47]
  Activity: inactive
[48]
  Activity: inactive
[49]
  Activity: inactive

— ChEMBL document CHEMBL4819025, “Natural Piperine Improves Lipid Metabolic Profile of High-Fat Diet-Fed Mice by Upregulating SR-B1 and ABCG8 Transporters” (J Nat Prod, 2021)
